Tests used:
Format in all cases: in vivo, healthy adult subjects
[1] = tested on: cortisol and an adrenal panel of intermediates (DHA, 17-hydroxypregnenolone, 17-hydroxyprogesterone); assay: Phase 1 single ascending dose study: pharmacodynamics (plasma cortisol and adrenal panel of intermediates)
Protocol: This was a Phase 1, single-blind, active-controlled, single ascending dose study to compare the PD effects of the investigational drug AMZ002 with those of H.P. Acthar Gel and Cortrosyn in healthy adult subjects. AMZ002 is a sterile solution for IM injection, formulated to contain 0.5 mg/mL ACTH having the sequence […] Phe, 50 mg/mL dextrose, 10 mg/mL sodium carboxymethylcellulose, and 5 mg/mL phenol (pH 6.4). The concentration of 0.5 mg/mL was chosen to reduce possible errors resulting from the preparation of small dose volumes (e.g., less than 0.4 ml).
The study consisted of 8 cohorts, with 8 subjects per cohort (each a single dose): Cortrosyn 0.25 mg; H.P. Acthar Gel 25 U; or, in an ascending dose fashion, AMZ002 0.15, 0.20, 0.25, 0.30, 0.50, or 0.75 mg. The investigational product (AMZ002) and active comparators (Cortrosyn and H.P. Acthar Gel) were administered via intramuscular (IM) injection to the upper arm. The dose of Cortrosyn (0.25 mg by IM administration), the active control, was intended to produce maximal adrenal stimulation. This is the standard dose for adults and children ≥2 years of age recommended in the 2015 Endocrine Society Clinical Practice Guidelines for diagnostic testing of adrenal insufficiency (same dose whether Cortrosyn is administered intravenously or IM). […] Since 25 U of natural ACTH was expected to elicit […] adrenal response, it was considered the most sensitive dose to determine a pharmacodynamically equivalent dose of AMZ002 in this study. Therefore, this study included a cohort of subjects who received a single dose of 25 U H.P. Acthar Gel (representing the target PD for the investigational drug product in this study).
On Day-1, a single standard dose of dexamethasone (1 mg) was administered orally at approximately midnight (8 hours prior to study drug administration the following day) to suppress endogenous adrenocorticotropic hormone (ACTH) production and remove this as a confounding variable in the measurements. […]
For each PD (pharmacodynamics) analyte (plasma cortisol and an adrenal panel of intermediates [DHA, 17-hydroxypregnenolone, and 17-hydroxyprogesterone]), the following parameters were calculated with the actual time points using a noncompartmental method as appropriate: • Maximum observed PD measurement (Emax); • Time to reach maximum observed PD measurement (TEmax); and • Area under the PD effect-time curve from time 0 to the last quantifiable PD measurement (AUEC0−t).
The PD parameters using baseline-corrected PD measurements were calculated similarly, if applicable. […] The following parameters were also calculated using baseline-corrected PD measurements: • Area under the PD effect-time curve that was above baseline (AUECabove B); and • Total time that response was≥baseline (Timeabove B). […]

[2] = Phase 1 single ascending dose study: plasma pharmacokinetics of syn-ACTH
Protocol: (§1) Subjects who met all of the inclusion criteria and none of the exclusion criteria were enrolled in the study. Safety and tolerability were evaluated throughout the study, including all adverse events (AEs); physical examination findings; vital sign measurements; 12-lead electrocardiogram (ECG) findings; standard clinical laboratory measurements (eg, serum chemistry, hematology, and urinalysis); and injection site evaluations. Immunogenicity, as measured by antidrug antibodies (ADA) were evaluated. PD effects were assessed based on levels of cortisol and an adrenal panel of intermediates (dehydroepiandrosterone [DHA], 17-hydroxypregnenolone, and 17 hydroxyprogesterone). Blood samples for measurement of syn-ACTH concentrations were also collected (AMZ002 cohorts only).
Blood samples were collected prior to dosing on Day 1; at 5, 15, 30, and 45 minutes postdose; and at 1, 1.5, 2, 2.5, 3, 4, 5, 6, 8, 10, 12, 24, 30, 36, and 48 hours postdose.
The following plasma PK (pharmacokinetics) parameters of syn-ACTH were calculated from individual syn-ACTH concentration data for each cohort: • Maximum plasma concentration (Cmax) if the maximum value occurred at more than 1 time point, Cmax was defined as the first value; • Time to Cmax (Tmax); • Terminal elimination constant rate (λz); • Terminal elimination half-life (t1/2), calculated as ln(2)/λz; • AUC from time 0 to the last quantifiable plasma concentration (Clast) (AUClast); • AUC from time 0 to infinity (AUCinf);
Proportion of AUCinf due to extrapolation (%)(AUCextr), calculated as 100×(Clast/λz)/AUCinf; • Apparent clearance (CL/F); calculated as Dose/AUCinf; and • Apparent volume of distribution (Vz/F), calculated as Dose/[λz×AUCinf].

[3] = Phase 1 single ascending dose study: safety and tolerability; details: for safety and tolerability: single IM doses 0.15 mg to 0.75 mg
Protocol: as §1
Safety parameters included all AEs; physical examination findings; vital sign measurements; 12-lead ECG findings; standard clinical laboratory measurements (eg, serum chemistry, hematology, and urinalysis); and injection site evaluations.

[4] = Phase 1 single ascending dose study: immunogenicity (antidrug antibodies); details: single IM dose; consistent with that observed for H.P. Acthar Gel
Protocol: as §1
Blood samples for evaluation of immunogenicity as measured by ADA were obtained at the Treatment Visit (Day 1) (predose), prior to discharge (Day 3), the Follow-Up Visit (Day 8 [+2 days])/Early Termination Visit, and subsequent visits for collection of ADA (Day 15 [+2 days] and Day 29 [+2 days]).

Substance: H-SYSMEHFRWGKPVGKKRRPVKVYPNGAEDELAEAFPLEF-OH [AMZ002]
- cortisol response compared to 25 U H.P. Acthar Gel, highest levels ([1]; highest dose levels within 0.15 to 0.75 mg, single IM dose, FIG. 1): slightly greater and more sustained effects
- cortisol response compared to 25 U H.P. Acthar Gel, lowest levels ([1]; lowest dose levels within 0.15 to 0.75 mg, single IM dose, FIG. 1): maximal effect that is less sustained
- DHA response, lower levels compared to higher levels ([1]; single IM dose 0.15 to 0.75 mg, FIG. 2): maximal effect that is less sustained
- 17-hydroxypregnenolone response, lower levels compared to higher levels ([1]; single IM dose 0.15 to 0.75 mg, FIG. 3): maximal effect that is less sustained
- half-life ([2]; human, plasma, single IM dose, range across dose cohorts, read-out: mean t½): 0.911 to 2.59 h
- Tmax ([2]; human, plasma, single IM dose, range across dose cohorts, read-out: median Tmax): 0.08 to 2 h
- absorption ([2]; single IM dose): rapidly absorbed
- time to mean peak plasma concentrations after dosing ([2]; single IM dose): ≤ 2 h
- increase of exposure with increase in dose ([2]; single IM dose 0.15 to 0.75 mg): greater than proportional
- deaths, treatment-emergent SAEs, withdrawals due to a TEAE ([3]; single IM doses): no deaths, treatment-emergent serious adverse events (SAEs), or withdrawals due to a treatment emergent adverse event (TEAE)
- severity of TEAEs ([3]; single IM doses): mild or moderate
- safety and tolerability [3]: safe and well tolerated
- safety and tolerability ([3]; listed as ACTH having SEQ ID NO:1): generally safe and well tolerated
- incidence of antibody formation (minimum of 1 positive postdose result) [4]: low

From patent publication US20240033328A1, “ACTH IN THE TREATMENT OF AN ADRENOCORTICOTROPIC HORMONE RESPONSIVE PEDIATRIC DISORDER” (Amzell B.V., priority 2020, published 2024)
